This note sets out measurements from PMC3121873, “Insertion of an Esterase Gene into a Specific Locust Pathogen (Metarhizium acridum) Enables It to Infect Caterpillars” (PLoS Pathogens, 2011).

The test concerns the target T1, MEST1 (Metarhizium robertsii, UniProt E9ETD4).
T1 construct: gene MAA_03283; full-length cDNA (395 aa, 42244 Da, no signal peptide) in pET28a, His6-tagged, 47 kDa band; E. coli Rosetta (DE3) crude extract, not purified
The test can be described thus: spectrophotometric p-nitrophenol release. It counts as biochemical. The conditions noted are these: 50 mM potassium phosphate pH 8, 37 °C; crude E. coli extract versus empty-vector extract.

T1 sequence (E9ETD4 entry or part of it): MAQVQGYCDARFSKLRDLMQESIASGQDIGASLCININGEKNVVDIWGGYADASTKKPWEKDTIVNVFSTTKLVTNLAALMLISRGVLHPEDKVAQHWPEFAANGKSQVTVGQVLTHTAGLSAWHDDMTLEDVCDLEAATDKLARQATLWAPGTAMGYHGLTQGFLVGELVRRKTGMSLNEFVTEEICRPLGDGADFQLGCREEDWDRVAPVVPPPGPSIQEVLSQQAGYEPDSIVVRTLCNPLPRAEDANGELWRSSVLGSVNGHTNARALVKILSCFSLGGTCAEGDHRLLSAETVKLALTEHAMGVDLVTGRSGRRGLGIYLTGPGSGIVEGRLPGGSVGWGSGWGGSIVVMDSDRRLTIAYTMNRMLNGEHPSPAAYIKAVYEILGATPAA

For the compound `CCCC(=O)Oc1ccc([N+](=O)[O-])cc1` [p-NP butyrate], the spectrophotometric p-nitrophenol release entry was “highest activity against p-NP propionate (C3), p-NP butyrate (C4) and p-NP caproate (C6)”.
The result for `CCC(=O)Oc1ccc([N+](=O)[O-])cc1` [p-NP propionate] reads “highest activity against p-NP propionate (C3), p-NP butyrate (C4) and p-NP caproate (C6)”.
